Assay results published in article PMC8124163 (2021).

Key:
[1] = system: 22AG (DNA, G4) AGGGTTAGGGTTAGGGTTAGGG; experiment: photometric titration; settings: K+ 110 mM; K-phosphate buffer, pH 7.0, 5% v/v DMSO; compound 20 µM
[2] = system: c-kit (DNA, G4) AGGGAGGGCGCTGGGAGGAGGG; experiment: photometric titration; settings: K+ 110 mM; K-phosphate buffer, pH 7.0, 5% v/v DMSO; compound 20 µM
[3] = system: a2 (DNA, G4) ACAGGGGTGTGGGGACAGGGGTGTGGGG; experiment: photometric titration; settings: K+ 110 mM; K-phosphate buffer, pH 7.0, 5% v/v DMSO; compound 20 µM
[4] = system: c-myc (DNA, G4) TGAGGGTGGGTAGGGTGGGTA; experiment: photometric titration; settings: K+ 110 mM; K-phosphate buffer, pH 7.0, 5% v/v DMSO; compound 20 µM
[5] = system: FmycT (DNA, G4) TGAGGGTGGGTAGGGTGGGTA; experiment: FRET melting (fluorescence); settings: K+ 10 mM, Na+ 10 mM, Li+ 90 mM; cacodylate, pH 7.0; ligand:DNA ratio 5; DNA 0.2 µM (Figure S6; Table 2 prints 0.2 mM); error ±0.5 °C
[6] = system: FkitT (DNA, G4) AGGGAGGGCGCTGGGAGGAGGG; experiment: FRET melting (fluorescence); settings: K+ 10 mM, Na+ 10 mM, Li+ 90 mM; cacodylate, pH 7.0; ligand:DNA ratio 5; DNA 0.2 µM (Figure S6; Table 2 prints 0.2 mM); error ±0.5 °C

Question: How did the Kb [1] turn out when `COc1ccc2cc3[n+](cc2c1OP(=O)(O)O)CCc1cc2c(cc1-3)OCO2` was run?
Answer: 5.0 ± 0.6 × 10^5 M^-1

Question: What about the Kb [2] of the same molecule?
Answer: 6.9 ± 0.2 × 10^5 M^-1

Question: What about the Kb [3] of the same molecule?
Answer: 6.7 ± 0.2 × 10^5 M^-1

Question: What about the Kb [4] of the same molecule?
Answer: 5.9 ± 0.4 × 10^5 M^-1

Question: What about the “∆Tm” value [5] of the same molecule?
Answer: 2.2 °C

Question: And the “∆Tm” value [6]?
Answer: 1.0 °C
